According to PubChem BioAssay (NCI):
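Compound exposure: 48 hours, 5 concentrations, 96-well plates. The concentration for full growth arrest is given as TGI.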

Assays:
Assay in all cases: NCI tumour cell line growth inhibition, 48 h
[1] = test system: HS 578T breast
[2] = test system: NCI-H226 lung
[3] = test system: SF-539 CNS
[4] = test system: SF-295 CNS
[5] = test system: OVCAR-3 ovarian
[6] = test system: HCC-2998 colon
[7] = test system: KM12 colon
[8] = test system: OVCAR-4 ovarian
[9] = test system: ACHN renal

| Compound | TGI [1] [µM] | TGI [2] [µM] | TGI [3] [µM] | TGI [4] [µM] | TGI [5] [µM] | TGI [6] [µM] | TGI [7] [µM] | TGI [8] [µM] | TGI [9] [µM] |
| --- | --- | --- | --- | --- | --- | --- | --- | --- | --- |
| Cc1nnc(SCc2nc(C#N)c(C#N)nc2CSc2nnc(C)s2)s1 | > 59.4 | 54.1 | 40.9 | > 100 | 20.7 | 30.4 | 37 | 31.5 | 22.5 |
| Cc1ccc(S(=O)(=O)NC(=O)Nc2ccc(C(=O)O)cc2)cc1 | > 100 |  | > 100 | > 100 |  |  | > 100 | > 100 | > 100 |
| COC(=O)[C@H](C)NC(=O)[C@H](NS(=O)(=O)c1nc2ccccc2s1)c1ccccc1 | 36.5 | 30.6 | 30.4 | > 100 |  | 44.5 | 30.5 | > 100 | > 100 |
| O=C(O)CCCc1ccc2c(c1)C(C(=O)O)CC2 (configuration not stated) | > 100 | > 100 | > 100 | > 100 |  | > 100 | > 100 | > 100 | > 100 |
| COc1cc(C2c3cc4c(cc3[C@@H](Nc3ccc(F)cc3)C3COC[C@H]23)OCO4)cc(OC)c1O (some centres not stated) | 4.21 |  | 3.49 | 5.32 |  | > 25 | > 25 | > 25 | 6.21 |
| CC(=O)OC12c3ccccc3C(c3ccccc31)C1C(=O)N(N=C(C)C)C(=O)C12 (configuration not stated) | > 100 | > 100 | > 100 | > 100 | > 100 | > 100 | > 100 | > 100 |  |
| CC1(C)N=C(/C(Cl)=[N+](/[O-])C(=O)c2ccc(Cl)cc2)C(C)(C)N1O | > 100 | 72.6 | 44 | > 100 | 32.4 | 63 | > 100 | 68.5 | > 100 |
| BrC1(c2ccccc2)C[n+]2c(-c3ccccc3)cc(-c3ccccc3)cc2-c2ccccc21 (configuration not stated) | 0.872 | 12.2 | 11.4 | 5.68 | 0.466 | 0.742 | 1.34 | 28 | 14 |
| O=C(Nc1cccc2ccccc12)c1cc2ccccc2oc1=O | > 100 | 54.4 | 81.8 |  | > 100 | > 100 | > 100 | > 100 | > 100 |
| O=C1/C(=C\c2cccc(Oc3ccccc3)c2)SC(c2ccccc2)N1c1cc(Cl)ccc1Cl (configuration not stated) | 75.9 |  | 88.5 | > 100 | 77.4 | > 100 | > 100 | > 100 | > 100 |
| CC(C)CNP(=O)(NCC(C)C)Oc1ccc(CC(NC(=O)OCc2ccccc2)C(=O)OCc2ccccc2)cc1 (configuration not stated) | 85.8 | > 100 |  | 98.4 | 16 | 30.7 | 38.3 | 36.5 | 30.6 |
| CC1(C)CCC[C@@]2(C)C1CC[C@@]1(CO)O[C@H](C3=CC(=O)OC3O)C[C@H]12 (some centres not stated) | 38.4 | 35.4 | > 59.8 | 50.5 | 29.4 | 31.3 | 36.3 | 35.2 | > 53.5 |
| O=c1c2ccc(Cl)cc2oc2c(CSc3ccccc3)cccc12 | > 100 | > 100 | > 60.7 | > 100 | > 100 | > 100 | > 65.3 | > 100 | > 65.1 |
| CC(=O)Oc1cc2c(cc1OCC(F)(F)F)[C@H]1CC[C@]3(C)[C@@H](OC(C)=O)CC[C@H]3[C@@H]1CC2=O | 50.4 | > 100 | 46.1 | 88.3 | 45.6 | 67.3 | 74.9 | 63.8 | 60 |
| [N-]=[N+]=CC(=O)C1CCN(c2ccccc2)C1=O (configuration not stated) | > 10 | > 10 | > 10 | > 10 | > 10 | > 10 | > 10 | > 10 | > 10 |
| O=c1c2[nH]cnc2n(-c2ccccc2)c(=S)n1-c1ccccc1 |  | > 100 | > 100 | > 100 | > 100 | > 100 | > 100 | > 100 | > 100 |
| COc1cc2c(cc1OC)C1=C(C=O)c3ccc(OC)c(OC)c3C(O)N1CC2 (configuration not stated) | > 100 | > 100 | 64.8 | > 100 | > 100 | 31.7 | > 100 | > 100 | > 100 |
| COc1cc2c(cc1O)NC(=O)[C@@H]1C[C@@H](O)CN1C2=O | > 100 | > 100 | > 100 | > 100 | > 100 | > 100 | > 100 | > 100 | > 100 |
| Cn1c2c(c3c(=O)[nH]ncc31)Cc1ccccc1-2 | > 100 | 61.9 | 78.7 | 25.7 | 41.2 |  | 66.8 | > 100 | 34.7 |
| O=S(Nc1ccccc1)c1ccc(Cl)cc1 (configuration not stated) | > 100 | > 100 | 46.7 | > 100 | > 100 | > 100 | 59.9 | > 100 | > 100 |
| NC(=O)CSc1nc2ccccc2c(=O)n1N | > 100 | > 100 | > 100 | > 100 | > 100 | > 100 | > 100 | > 100 | > 100 |
| C/C(=N\NC(=S)NC(C)(C)C)c1nc2ncccc2[nH]1 | > 30.2 | 13.9 | 13.6 | > 100 | > 100 | > 68.6 | > 100 | > 100 | > 100 |
| CC1(C)C(=O)/C(=C/c2ccccc2)C(C)(C)C1(C)C | > 100 | > 100 | > 100 | > 100 | > 83.2 | > 100 | > 100 | > 100 | > 100 |
| CC(=O)CCC1(C(=O)OCC(C)C)CCCC1=O (configuration not stated) | > 100 | > 100 | > 100 | > 100 | > 100 |  | > 100 | > 100 | > 100 |
